From US20240423976A1, “COMPOSITIONS AND METHODS FOR TREATING THERAPEUTIC-INDUCED TOXICITIES” (THE BOARD OF REGENTS OF THE UNIVERSITY OF OKLAHOMA, priority 2023, published 2024)

Key:
HEI-OC1 cells [1] = assay: Cellular internalization study of C6-cHy-NPs with pathway inhibitors and over time; assay type: cell-based; settings: 40 μg/mL inhibitor, 1 h pre-incubation
Experimental: First, blank cHy-NPs (cHy-NPs, without FL or HK encapsulation) were prepared as described below. In, 1 mL colloidal solution of cHy-NPs, 1 mg coumarin-6 (C-6) was added and the mixture was stirred at 200 rpm overnight at room temperature. The NP solution was then centrifuged at 2000 rpm for 5 min to remove unloaded C-6. The supernatant containing C-6-cHy-NPs was transferred to a fresh microcentrifuge tube. The HEI-OC1 (House Ear Institute-Organ of Corti 1) cells were seeded in 96 well plate (10000 cells per well) overnight. After washing with fresh growth media, the media (100 μL) containing 40 μg/mL CPZ, MβCD, GNT, or AML was added to separate columns (2 columns kept untreated as a control group). After 1 h of incubation at 33° C. (5% CO2), 2.5 μL of C6-cHy-NPs (10× diluted with media) were added to each well. The plate was incubated for 4 h and the cells were washed using PBS. After adding fresh PBS, the fluorescence intensity of each well was recorded using a multi-well plate fluorescence spectrophotometer (Synergy 2, BioTek, USA) at λex/em 460/505. In another experiment to confirm the effect of various inhibitors, the cells (20000 per well) were seeded overnight, and incubated with different concentrations (0, 2.5, 5, 10, 20, 30, 40, 50, and 75 μg/mL) of MβCD, GNT, or AML. After treatment, incubation, and washing, the fluorescence intensity of each well was recorded as described above. Furthermore, to study the time of cellular internalization the cells (20000 per well) were treated with C-6-cHy-NPs (5 μL, 10× diluted), and the fluorescence of the samples was recorded after washing at different time intervals (0.25, 0.5, 1, 2, 3, 4, 5, 6, 8, 10, 24, and 48 h) of incubation. For microscopy analysis, the cells were seeded in a 6 well plate (1×10^5 cells/well) and incubated overnight. The next day, cells were washed and in each well media containing C-6-cHy-NPs was added. At different time intervals (0.5, 1, 2, 3, 4, and 5 h), the cells of a well were washed using PBS and analyzed under the fluorescence microscope using a 20× lens (Revolve, Discover Echo Inc., San Diego, CA, USA) at λex 460 nm. Counterstain Hoechst 33342 (1 μg/mL, 10 min incubation in the dark, λex 350 nm) was used.

[2] = In vitro drug release kinetics from thermoresponsive hydrogel (Korsmeyer-Peppas model); assay type: physicochemical; settings: PBS pH 7.4; for release from the hydrogel: in 48 h at 25° C.; for maximum release from the hydrogel: in one month at 37° C.
Experimental: Two 24 well plates were taken equipped with 6.5 mm inserts (Transwell®, Costar, Corning, NY, USA) having 8 µm pores polycarbonate support membrane six in each plate. The developed hydrogel formulations containing FL-cHy-NPs and HK-cHy-NPs were filled in the inserts (n=3, in each plate and each formulation). One plate was placed at 37° C. while the other one was kept at 25° C. After 30 min, the receiver media (1 mL, PBS pH 7.4) was filled in each well-containing insert. Other wells were filled with deionized water to maintain humidity in the plate. […] The drug content (FL and HK) was extracted using DCM; solvent-solvent extraction. After evaporating the DCM, the extracted FL and HK content was dissolved in methanol (100 μL, 100% LC-MS grade). The drug quantification of FL and HK in each sample was done using HPLC using the same procedure described above. The release kinetics of FL and HK from both hydrogels were calculated using the Korsmeyer-Peppas model (eq 7). where, Mt is the mass of the drug released at time t; […]

neuromast hair cells = assay: Otoprotection studies on zebrafish (cisplatin ototoxicity); assay type: in vivo; settings: 5-6 dpf fish; 33, 17, 2 mM alone or 17+17, 8.5+8.5, 3+3 mM; cisplatin 400 mM, 6 hours
Experimental: Fish were maintained at 28.5° C. in E3 media with a 14-hour light/10-hour dark cycle. Otoprotection studies were performed in 5-6 dpf wild type (TuAB) fish as previously described [2]. Briefly, fish were pre-incubated for one hour in E3 media containing FL, HK or FL+HK and then co-incubated for 6 hours with the corresponding cytoprotective molecules and clinical cisplatin 400 mM. Concentrations were as follow: FL or HK=33 mM, 17 mM and 2 mM; FL+HK=17+17 mM, 8.5+8.5 mM and 3+3 mM. Fish were also incubated with empty NPs as control. After the treatment, fish were transferred to fresh E3 media for one hour to recover, followed by fixation (4% PFA) and processing for confocal imaging. For the detection of neuromast hair cells, fish were immunostained for the hair cell marker, otoferlin (HCS-1, DSHB, 1:200 dilution). Hair cells were manually counted using a Zeiss AxioSkop 2 fluorescence microscope. The neuromasts inspected were part of the cranial system and included the otic, middle, and opercular neuromasts. Ten to twelve fish were used per treatment. Confocal imaging was performed using a Zeiss LSM 700 confocal laser scanning image system. Images were captured at room temperature with automatically set sectioning and processed with ZEN black edition software. Z-stacks are presented as flat Z-projections.

HEI-OC1 cells [3] = assay: MitoSOX mitochondrial superoxide assay; assay type: cell-based; settings: MitoSOX fluorescence
HEI-OC1 cells [4] = assay: Intracellular ROS generation (DCFH2-DA); assay type: cell-based
Experimental: (§1) The HEI-OC1 Cells (10000 cells/well in 96-well plates) were treated with various treatment groups as described above in the cell cytotoxicity study section. The endpoints for ROS generation, apoptosis, and necrosis studies were set up at 24, 36, and 48 h, respectively. For ROS generation study, the cells were washed two times with fresh media and then culture media containing DCFH2DA reagent (10 μM) was added to each well. After 30 min incubation in dark at 33° C. (5% CO2) the cells were washed with PBS three times. Fresh PBS (100 μL) was added and the fluorescence was recorded at λex/em 480/530 nm using a multi-well plate fluorescence spectrophotometer (Synergy 2, BioTek, USA). […] After washing, the fluorescence was recorded at λex/em 480/530 nm using a multi-well plate fluorescence spectrophotometer (Synergy 2, BioTek, USA). […] After 15 min incubation in dark, the fluorescence was recorded at λex/em 530/615 nm using a multi-well plate fluorescence spectrophotometer (Synergy 2, BioTek, USA). The fluorescence microscopy analysis of ROS generation, apoptosis, and necrosis experiments was performed. […] The cells were observed under the fluorescence microscope using a 20× lens at the respective dye fluorescence filter as described above. For HOECHST-33342 λex/em 350/460 nm fluorescence filter was used.

caspase 3/7 [5] = assay: Caspase 3/7 apoptosis assay; assay type: cell-based; settings: HEI-OC1
Experimental: as §1

HEI-OC1 cells [6] = assay: PI staining necrosis / cell death assay; assay type: cell-based; settings: 48 h; pre-treatment then CisPt; CisPt row is CisPt only
Experimental: as §1

caspase 3/7 [7] = assay: Caspase 3/7 activation in CisPt-exposed cells (FLICA, fluorescence microscopy), Example 1; assay type: cell-based; settings: CisPt-exposed HEI-OC1 cells
Experimental: Novel dual stimuli-responsive nanoformulations have been investigated for the synthesis of ROS-responsive polymers, and thermo-responsive polymers and their characterization using ^1H NMR. Drug loaded NCs comprising BUC and/or DLT in micelles of PPS-mPEG2000 were prepared by nanoprecipitation methods. The BUC-PPS-mPEG2000-NCs and DLT-PPS-mPEG2000-NCs were characterized using DLS and NTA and TEM images. The EE % and DL % of NCs were determined using HPLC and Ellman's assays. The long-term storage stability over two months was checked by using DLS for size and PDI. In vitro assessments were performed on the HEIOC1 cell lines for MTT and Live-dead cell assays for biocompatibility and cellular uptake analysis, respectively. The cytoprotective effect of BUC-NCs, DLT-NCs and BUC/DLT-PPS-mPEG2000-NCs, were studied after treating with various regimens and different concentration with and without cisplatin. The ROS-Scavenging effect nanoformulation was confirmed by the DCFH-DA assay, and FLICA assays. The final formulation, named NanoSensoGel, comprising a combination of a thermo-responsive P407 hydrogel, and the ROS-responsive BUC/DLT loaded PPS-mPEG2000-NCs, was characterized for its bio-responsiveness, a novel method was established to perform the in vitro drug release, and release kinetics mechanism were studied for dual drug release.

**Q.** Which “effect of pathway inhibitor pretreatment on cellular internalization of C6-cHy-NPs” value (shortened to “effect of pathway inhibitor pretreatment”) (HEI-OC1 cells [1]) does the source give for `CN(C)CCCN1c2ccccc2Sc2ccc(Cl)cc21` [CPZ, Chlorpromazine] here?
**A.** significantly reduced cellular internalization

**Q.** Which results are given for `Fc1ccc(C(c2ccc(F)cc2)N2CCN(C/C=C/c3ccccc3)CC2)cc1` [FL, Flunarizine]?
**A.** release from the hydrogel [2]: ~60%; maximum release from the hydrogel [2]: ~50%; protection of neuromast hair cells against cisplatin-induced ototoxicity (neuromast hair cells): prevented hair cell loss

**Q.** Which “effect of pathway inhibitor pretreatment” value (HEI-OC1 cells [1]) does the source give for `N=C(N)NC(=O)c1nc(Cl)c(N)nc1N` [AML, Amiloride] here?
**A.** no significant change in the cellular internalization

**Q.** With `O=c1c(-c2ccc(O)cc2)coc2cc(O)cc(O)c12` [GNT, Genistein] as the molecule, how does the “effect of pathway inhibitor pretreatment” value (HEI-OC1 cells [1]) read?
**A.** no significant change in the cellular internalization

**Q.** Which results are given for `O=S([O-])([O-])=S.[Na+].[Na+]` [STS, Sodium thiosulphate]?
**A.** mitochondrial superoxide compared to CisPt-only treated cells (HEI-OC1 cells [3]): significantly reduced mitochondrial superoxide; ROS generation compared to CisPt-only treated cells (HEI-OC1 cells [4]; 24 h post CisPt addition): did not show a significant ROS generation; ratio of normalized intensities of total cells and DCF-stained cells (HEI-OC1 cells [4]; fluorescence microscopy, pre-treatment then CisPt, CisPt row is CisPt only): 1.53±0.23; caspase 3/7 activation compared to CisPt only treated cells (caspase 3/7 [5]): significantly reduced signals of caspase 3/7 activation; ratio of normalized intensities of total cells and PI-stained cells (HEI-OC1 cells [6]): 2.03±0.02

**Q.** Which “release from the hydrogel” value [2] does the source give for `C=CCc1ccc(O)c(-c2ccc(O)c(CC=C)c2)c1` [HK, Honokiol] here?
**A.** ~60%

**Q.** And the “maximum release from the hydrogel” value [2]?
**A.** ~50%

**Q.** What about the “protection of neuromast hair cells against cisplatin-induced ototoxicity” value (neuromast hair cells) of the same molecule?
**A.** prevented hair cell loss

**Q.** With `CC(C)(S)C(=O)N[C@@H](CS)C(=O)O` [BUC, bucillamine] as the molecule, how does the “inhibition of caspase 3/7 activation” value (caspase 3/7 [7]) read?
**A.** highly responsible for the inhibition of the caspase 3/7 activation

**Q.** For methyl-β-cyclodextrin [MβCD], which “effect of pathway inhibitor pretreatment” value (HEI-OC1 cells [1]) is on record?
**A.** no significant change in the cellular internalization
